Values joined by “and” are separate entries in the source; they are usually repeats but may differ in a detail not shown here. Equal values may be shown once. “Also recorded” adds a separate entry of the source.
Legend:
Human studies: safety = assay type: in vivo; settings: patients 1-4, 200-207 MBq
Description: patient with squamous cell carcinoma of the oesophagus • 2. Person with metastatic ovarian carcinoma • 3. Person with metastatic cutaneous squamous cell carcinoma • 4. Person with invasive ductal breast carcinoma.

[1] = Human studies: radiation dosimetry of subjects 1-4 (Olinda/EXM); assay type: in vivo; settings: subjects 1-4 = the 7th table-the 10th table
Protocol: For subjects 1-4, radiation dosimetry was calculated using Olinda/EXM based on the organ biodistribution discussed above.
Tables 7-10 show the estimate for radiation dosimetry for subjects 1˜4 of 200 MBq of ^68Ga NODAGA GSAO for individual organs and for the whole body in mSv/MBq (EDE cont.=effective dose equivalent contribution, ED Cont.=effective dose contribution). The estimated whole-body dose from the one (1) low dose CT and two (2) ultra-low dose CTs was 9.2 mSv.

O=C(O)CNC(=O)[C@H](CSCC(=O)Nc1ccc([As](O)O)cc1)NC(=O)CC[C@H](NC(=O)CCC1C(=O)[O][68Ga]2[O]C(=O)CN3CCN(CCN1CC3)CC(=O)[O]2)C(=O)O (stereo partly shown) [^68Ga-NODAGA-GSAO]
adverse events (Human studies: safety): no related or unrelated serious adverse events or adverse events; also recorded: safe, well-tolerated and without adverse effects | Alpha dose ([1]; Adrenals): 0.00E+00 mSv/MBq | ED Cont. ([1]; Adrenals): 7.09E−05 mSv/MBq and 7.38E−05 mSv/MBq and 4.84E−05 mSv/MBq and 8.93E−05 mSv/MBq | Photon dose ([1]; Adrenals): 4.52E−03 mSv/MBq and 5.24E−03 mSv/MBq and 3.71E−03 mSv/MBq and 4.86E−03 mSv/MBq | Total dose ([1]; Adrenals): 1.42E−02 mSv/MBq and 1.48E−02 mSv/MBq and 9.68E−03 mSv/MBq and 1.79E−02 mSv/MBq | Alpha dose ([1]; Brain): 0.00E+00 mSv/MBq | Beta dose ([1]; Brain): 6.82E−04 mSv/MBq and 6.40E−04 mSv/MBq and 6.13E−04 mSv/MBq and 7.79E−04 mSv/MBq | ED Cont. ([1]; Brain): 9.10E−06 mSv/MBq and 1.05E−05 mSv/MBq and 7.39E−06 mSv/MBq and 1.00E−05 mSv/MBq | EDE Cont. ([1]; Brain): 0.00E+00 mSv/MBq | Photon dose ([1]; Brain): 1.14E−03 mSv/MBq and 1.46E−03 mSv/MBq and 8.65E−04 mSv/MBq and 1.23E−03 mSv/MBq | Total dose ([1]; Brain): 1.82E−03 mSv/MBq and 2.10E−03 mSv/MBq and 1.48E−03 mSv/MBq and 2.01E−03 mSv/MBq | Alpha dose ([1]; Breasts): 0.00E+00 mSv/MBq | Photon dose ([1]; Breasts): 2.11E−03 mSv/MBq and 2.76E−03 mSv/MBq and 1.59E−03 mSv/MBq and 2.25E−03 mSv/MBq | Alpha dose ([1]; Gallbladder Wall): 0.00E+00 mSv/MBq | ED Cont. ([1]; Gallbladder Wall): 0.00E+00 mSv/MBq | EDE Cont. ([1]; Gallbladder Wall): 0.00E+00 mSv/MBq | Photon dose ([1]; Gallbladder Wall): 4.59E−03 mSv/MBq and 5.27E−03 mSv/MBq and 4.07E−03 mSv/MBq and 4.46E−03 mSv/MBq | Total dose ([1]; Gallbladder Wall): 8.07E−03 mSv/MBq and 9.96E−03 mSv/MBq and 6.09E−03 mSv/MBq and 8.56E−03 mSv/MBq | Alpha dose ([1]; Heart Wall): 0.00E+00 mSv/MBq | Beta dose ([1]; Heart Wall): 6.65E−03 mSv/MBq and 8.27E−03 mSv/MBq and 4.65E−03 mSv/MBq and 7.57E−03 mSv/MBq | ED Cont. ([1]; Heart Wall): 0.00E+00 mSv/MBq | EDE Cont. ([1]; Heart Wall): 0.00E+00 mSv/MBq | Photon dose ([1]; Heart Wall): 3.57E−03 mSv/MBq and 4.29E−03 mSv/MBq and 2.82E−03 mSv/MBq and 3.84E−03 mSv/MBq | Total dose ([1]; Heart Wall): 1.02E−02 mSv/MBq and 1.26E−02 mSv/MBq and 7.48E−03 mSv/MBq and 1.14E−02 mSv/MBq | Alpha dose ([1]; Kidneys): 0.00E+00 mSv/MBq | Beta dose ([1]; Kidneys): 4.32E−02 mSv/MBq and 4.21E−02 mSv/MBq and 4.45E−02 mSv/MBq and 4.30E−02 mSv/MBq | ED Cont. ([1]; Kidneys): 2.52E−04 mSv/MBq and 2.48E−04 mSv/MBq and 2.57E−04 mSv/MBq | EDE Cont. ([1]; Kidneys): 3.03E−03 mSv/MBq and 2.98E−03 mSv/MBq and 3.08E−03 mSv/MBq and 3.02E−03 mSv/MBq | Photon dose ([1]; Kidneys): 7.22E−03 mSv/MBq and 7.59E−03 mSv/MBq and 6.83E−03 mSv/MBq and 7.33E−03 mSv/MBq | Total dose ([1]; Kidneys): 5.04E−02 mSv/MBq and 4.97E−02 mSv/MBq and 5.13E−02 mSv/MBq and 5.03E−02 mSv/MBq | Alpha dose ([1]; LLI Wall): 0.00E+00 mSv/MBq | ED Cont. ([1]; LLI Wall): 2.43E−03 mSv/MBq and 2.50E−03 mSv/MBq and 2.44E−03 mSv/MBq and 1.48E−03 mSv/MBq | Photon dose ([1]; LLI Wall): 7.31E−03 mSv/MBq and 7.16E−03 mSv/MBq and 5.96E−03 mSv/MBq and 8.79E−03 mSv/MBq | Total dose ([1]; LLI Wall): 2.02E−02 mSv/MBq and 2.08E−02 mSv/MBq and 2.03E−02 mSv/MBq and 1.23E−02 mSv/MBq | Alpha dose ([1]; Liver): 0.00E+00 mSv/MBq | Beta dose ([1]; Liver): 1.27E−02 mSv/MBq and 1.45E−02 mSv/MBq and 1.20E−02 mSv/MBq and 1.16E−02 mSv/MBq | ED Cont. ([1]; Liver): 8.78E−04 mSv/MBq and 1.00E−03 mSv/MBq and 8.20E−04 mSv/MBq and 8.13E−04 mSv/MBq | Photon dose ([1]; Liver): 4.84E−03 mSv/MBq and 5.51E−03 mSv/MBq and 4.36E−03 mSv/MBq and 4.71E−03 mSv/MBq | Total dose ([1]; Liver): 1.76E−02 mSv/MBq and 2.00E−02 mSv/MBq and 1.64E−02 mSv/MBq and 1.63E−02 mSv/MBq | Alpha dose ([1]; Lungs): 0.00E+00 mSv/MBq | Beta dose ([1]; Lungs): 5.19E−03 mSv/MBq and 5.73E−03 mSv/MBq and 5.16E−03 mSv/MBq and 4.82E−03 mSv/MBq | ED Cont. ([1]; Lungs): 9.74E−04 mSv/MBq and 1.11E−03 mSv/MBq and 9.04E−04 mSv/MBq and 9.57E−04 mSv/MBq | EDE Cont. ([1]; Lungs): 9.74E−04 mSv/MBq and 1.11E−03 mSv/MBq and 9.04E−04 mSv/MBq and 9.57E−04 mSv/MBq | Photon dose ([1]; Lungs): 2.93E−03 mSv/MBq and 3.54E−03 mSv/MBq and 2.37E−03 mSv/MBq and 3.15E−03 mSv/MBq | Total dose ([1]; Lungs): 8.12E−03 mSv/MBq and 9.27E−03 mSv/MBq and 7.53E−03 mSv/MBq and 7.97E−03 mSv/MBq | Alpha dose ([1]; Muscle): 0.00E+00 mSv/MBq | Beta dose ([1]; Muscle): 6.19E−03 mSv/MBq and 6.08E−03 mSv/MBq and 5.15E−03 mSv/MBq and 7.68E−03 mSv/MBq | ED Cont. ([1]; Muscle): 4.85E−05 mSv/MBq and 4.95E−05 mSv/MBq and 3.99E−05 mSv/MBq and 5.88E−05 mSv/MBq | EDE Cont. ([1]; Muscle): 0.00E+00 mSv/MBq | Photon dose ([1]; Muscle): 3.51E−03 mSv/MBq and 3.83E−03 mSv/MBq and 2.83E−03 mSv/MBq and 4.07E−03 mSv/MBq | Total dose ([1]; Muscle): 9.71E−03 mSv/MBq and 9.91E−03 mSv/MBq and 7.98E−03 mSv/MBq and 1.18E−02 mSv/MBq | Alpha dose ([1]; Osteogenic Cells): 0.00E+00 mSv/MBq | Photon dose ([1]; Osteogenic Cells): 3.47E−03 mSv/MBq and 4.14E−03 mSv/MBq and 2.74E−03 mSv/MBq and 3.80E−03 mSv/MBq | Alpha dose ([1]; Ovaries): 0.00E+00 mSv/MBq | Photon dose ([1]; Ovaries): 7.00E−03 mSv/MBq and 6.95E−03 mSv/MBq and 5.52E−03 mSv/MBq and 8.79E−03 mSv/MBq | Total dose ([1]; Ovaries): 1.01E−02 mSv/MBq and 1.16E−02 mSv/MBq and 7.54E−03 mSv/MBq and 1.23E−02 mSv/MBq | Alpha dose ([1]; Pancreas): 0.00E+00 mSv/MBq | Beta dose ([1]; Pancreas): 1.20E−02 mSv/MBq and 1.62E−02 mSv/MBq and 1.13E−02 mSv/MBq and 1.18E−02 mSv/MBq | ED Cont. ([1]; Pancreas): 8.46E−05 mSv/MBq and 1.10E−04 mSv/MBq and 7.72E−05 mSv/MBq and 8.44E−05 mSv/MBq | EDE Cont. ([1]; Pancreas): 8.14E−04 mSv/MBq and 1.32E−03 mSv/MBq and 9.27E−04 mSv/MBq and 1.01E−03 mSv/MBq | Photon dose ([1]; Pancreas): 4.90E−03 mSv/MBq and 5.90E−03 mSv/MBq and 4.18E−03 mSv/MBq and 5.04E−03 mSv/MBq
